Measurements: US8569469B2, “B12-dependent dehydratases with improved reaction kinetics” (priority 2002, dated 2013)

Experiments:
Type in all cases: biochemical
[1] = target: Klebsiella pneumoniae GDH variant Xba3007 (γ-Thr53Ala), SEQ ID NO: 40 (amino acid 41, 42, 43) (Klebsiella pneumoniae, UniProt O08505+Q59476); conditions: Xba3007 (Type 1)
[2] = target: Klebsiella pneumoniae GDH variant Xba3009 (α-Thr77Ala, α-Cys193Ser, stop of α to Glu (α-β fusion), β-Lys56Arg, β-Ala88 silent, β-Asp111Glu, γ-His67Tyr, γ-Thr114 (Klebsiella pneumoniae, UniProt O08505+Q59476, C193S/D111E, form not given/K56R/T77A)); conditions: Xba3009 (Type 4)
[3] = target: Klebsiella pneumoniae GDH variant Sma3002 (α-Tyr271Cys, α-Tyr502His, stop of α to Gln (α-β fusion), β-Gln2Arg, β-Phe11 silent), SEQ ID NO: 140 (amino acid 141, (Klebsiella pneumoniae, UniProt O08505+Q59476, form not given/Y271C/Y502H)); conditions: Sma3002 (Type 2)
[4] = target: Klebsiella pneumoniae ATCC 25955 B12-dependent glycerol dehydratase (GDH), wild type, SEQ ID NO: 1 (α, β, γ subunits SEQ ID NO: 2, 3, 4) (Klebsiella pneumoniae, UniProt O08505+Q59476); assay: Time course of GDH reaction with glycerol, with and without 1,3-propanediol (permeabilized cells, FIG. 1); parameters: permeabilized cells (A1) or purified (A2-A4)
Description: FIG. 1 illustrates the typical time course associated with GDH inactivation. These enzyme activity assays were conducted using the GDH encoded by dhaB1, dhaB2, and dhaB3 (SEQ ID NO:1 and SEQ ID NO: 2, 3, and 4, respectively) of K. pneumoniae (WO 01/012833A2).
Cells were permeabilized as follows: aliquots of culture (0.3 mL) were dispensed into the square wells of a polypropylene deep-well plate (Beckman-Coulter, Fullerton, Calif.) and 10 μL of toluene containing 2.5% (v/v) Triton X-100 detergent was added to each well. Plates were then shaken for 10 min at top speed on an IKA MTS4 shaker (IKA-Werke Gmbh., Staufen, Germany). Working under red light to protect the coenzyme B12, reactions were started by adding 5 volumes of substrate solution to 1 volume of permeabilized cell suspension. The substrate solution contained 12 mM glycerol and 24 μM coenzyme B12 in 0.1 M K-Hepes, pH 8. At timed intervals, 12.5 μl aliquots of the reaction were added to the wells of a 96-well plate which contained 12.5 μl of 3 mg/mL MBTH in 0.4 M glycine-HCl, pH 2.7. At least 20 min after sampling, 125 μL of 5.5 mM FeCl3 in 10 mM HCl was added to each of the MBTH-containing samples. After a further 20 min or longer, the blue color associated with GDH activity was quantitated as absorbance at 670 nm using a Spectramax 160 plate reader (Molecular Devices, Sunnyvale, Calif.). A similar experiment was conducted in which the substrate solution was supplemented with 50 mM 1,3-propanediol.
The rate of product formation decreases rapidly with time as inactivation occurs. A theoretical curve was drawn through the points by fitting three parameters to the following equation y=T0+amp(1−exp(−kinact obsd*time)). […] The fitting parameters are related to the kinetic properties of the reaction as follows: the amplitude is equal to the initial rate of the reaction (v) divided by the observed enzyme inactivation rate (kinact obsd). The initial rate is [GDH][gly]kcat/(Km+[gly]). […]

Row | Compound | kcat [1] | kcat [2] | Km [3] | kcat [3] | Ki [4] | inactivation, times faster with 1,3-propanediol ([4]; 50 mM 1,3-propanediol, 10 mM glycerol, vs without 1,3-propanediol) | inhibition at 50000 µM ([4]; pH 8, read-out: reduction of initial rate of the reaction)
1 | OCC(O)CO [glycerol] | 16,220 min^−1 | 65,373 min^−1 | 2940 µM | 9,830 min^−1 | – | – | –
2 | OCCCO [1,3-propanediol] | – | – | – | – | ~15 mM | ~3 times | ~20%
